Results on 31 compounds are retold here after patent US11033539B2, “Compounds of formulas (VII), (VIII), (IX), (XI), (XII), (XIII), and (XIV) as muscarinic receptor 4(M4) antagonists for treating neurological diseases” (Neurocrine Biosciences, Inc., priority 2015, dated 2021).

The experiment deals with human M4 receptor (Homo sapiens (Human), UniProt P08173). As to the kind of experiment: Radioligand (tritiated N-methylscopolamine) binding assay, M4. Particulars: Ki against the M4 receptor; membranes from CHO cells expressing human M4; tritiated N-methylscopolamine 1.5 nM; read-out: Ki. The method, then:
Binding affinity (Ki) of compounds was measured by inhibition of radioligand binding to membranes from CHO cells expressing human M1, M2, M3, M4 and M5 receptors. Membranes were prepared by nitrogen cavitation and differential centrifugation as previously described (Hoare et al., Mol. Pharmacol. 2003 March; 63(3): 751-65). The radioligand employed was tritiated N-methylscopolamine, used at a concentration of 1.5 nM. A dose-response of twelve concentrations of compound was used, ranging from 10 μM to […]. The assay buffer was 50 mM HEPES, 100 mM NaCl, 5 mM MgCl2, 1 mM ethylenediaminetetraacetic acid, pH-adjusted to pH 7.4. Membranes, radioligand and compound were incubated together for 90 minutes at 37° C., in a total volume of 150 μl in a 96-well plate. Receptor-bound radioligand was then collected by harvesting the assay over glass fiber filters pretreated with polyethylenimine to trap the cell membranes, using rapid vacuum filtration. Harvesting and radioactivity counting was conducted as previously described (see, e.g., Hoare et al., Mol. Pharmacol. 2003 63(3):751-65); Erratum at Mol. Pharmacol. 2005 July; 68(1): 260).

Sequence of human M4 receptor (P08173 whole entry): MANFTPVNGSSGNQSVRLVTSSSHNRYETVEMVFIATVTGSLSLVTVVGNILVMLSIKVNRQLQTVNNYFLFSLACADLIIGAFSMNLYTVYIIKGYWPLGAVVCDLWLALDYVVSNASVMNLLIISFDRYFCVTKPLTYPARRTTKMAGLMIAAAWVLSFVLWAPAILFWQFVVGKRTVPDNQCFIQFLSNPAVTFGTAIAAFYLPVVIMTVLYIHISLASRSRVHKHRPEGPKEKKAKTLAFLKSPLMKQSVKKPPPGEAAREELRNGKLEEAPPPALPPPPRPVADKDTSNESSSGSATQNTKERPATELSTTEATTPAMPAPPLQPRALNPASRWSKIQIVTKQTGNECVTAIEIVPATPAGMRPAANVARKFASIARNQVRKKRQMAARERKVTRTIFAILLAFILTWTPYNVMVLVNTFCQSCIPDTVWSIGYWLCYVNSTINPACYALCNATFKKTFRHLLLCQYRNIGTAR

Consider `C[C@@H]1CN(c2ccccc2)CCN1C(=O)NCCC1CCN(Cc2ccccc2)CC1` [4-47, (2R)-N-[2-(1-benzylpiperidin-4-yl)ethyl]-2-methyl-4-phenylpiperazine-1-carboxamide], for which the inhibitory constant (Ki) was 10 to 100 nM.

As to `C[C@@H]1CN(c2ncc(F)cc2F)CCN1C(=O)NCCC1CCN(Cc2ccccc2)CC1` [4-48, (2R)-N-[2-(1-benzylpiperidin-4-yl)ethyl]-4-(3,5-difluoropyridin-2-yl)-2-methylpiperazine-1-carboxamide], the Ki fell in the range of 10 to 100 nM.

As for `C[C@@H]1CN(c2ccccc2F)CCN1C(=O)NCCC1CCN(Cc2ccccc2)CC1` [4-49, (2R)-N-[2-(1-benzylpiperidin-4-yl)ethyl]-4-(2-fluorophenyl)-2-methylpiperazine-1-carboxamide], the Ki was in the range of 100 to 1000 nM.

As for `COc1cccc(N2CCN(C(=O)NCCC3CCN(Cc4ccccc4)CC3)[C@H](C)C2)n1` [4-51, (2R)-N-[2-(1-benzylpiperidin-4-yl)ethyl]-4-(6-methoxypyridin-2-yl)-2-methylpiperazine-1-carboxamide], the Ki is 100 to 1000 nM.

Take `C[C@@H]1CN(c2ncc(F)c(C#N)n2)CCN1C(=O)NCCC1CCN(Cc2ccccc2)CC1` [4-55, (2R)-N-[2-(1-benzylpiperidin-4-yl)ethyl]-4-(4-cyano-5-fluoropyrimidin-2-yl)-2-methylpiperazine-1-carboxamide]: the Ki was in the range of 100 to 1000 nM.

For `COc1ccc(N2CCN(C(=O)NCCC3CCN(Cc4ccccc4)CC3)CC2C)cc1` (stereo not shown) [4-56, N-[2-(1-benzylpiperidin-4-yl)ethyl]-4-(4-methoxyphenyl)-3-methylpiperazine-1-carboxamide], the Ki lay in the range of 100 to 1000 nM.

As for `C[C@@H]1CN(c2cncc(F)c2)CCN1C(=O)NCCC1CCN(Cc2ccccc2)CC1` [4-61, (2R)-N-[2-(1-benzylpiperidin-4-yl)ethyl]-4-(5-fluoropyridin-3-yl)-2-methylpiperazine-1-carboxamide], the inhibition constant Ki lay within 100 to 1000 nM.

On to `C[C@@H]1CN(c2ccccn2)CCN1C(=O)NCCC1CCN(Cc2ccccc2)CC1` [4-62, (2R)-N-[2-(1-benzylpiperidin-4-yl)ethyl]-2-methyl-4-(pyridin-2-yl)piperazine-1-carboxamide], for which the Ki lay in the range of 100 to 1000 nM.

Turning to `Cc1cncc(N2CCN(C(=O)NCCC3CCN(Cc4ccccc4)CC3)[C@H](C)C2)c1` [4-63, (2R)-N-[2-(1-benzylpiperidin-4-yl)ethyl]-2-methyl-4-(5-methylpyridin-3-yl)piperazine-1-carboxamide], the Ki fell in the range of 100 to 1000 nM.

Take `C[C@@H]1CN(c2ncccn2)CCN1C(=O)NCCC1CCN(Cc2ccccc2)CC1` [4-64, (2R)-N-[2-(1-benzylpiperidin-4-yl)ethyl]-2-methyl-4-(pyrimidin-2-yl)piperazine-1-carboxamide]: the Ki lay within 100 to 1000 nM.

As to `COc1nc(N2C[C@@H](C)N(C(=O)NCCC3CCN(Cc4ccccc4)CC3)[C@@H](C)C2)ncc1C#N` [4-69, (2R,6S)-N-[2-(1-benzylpiperidin-4-yl)ethyl]-4-(5-cyano-4-methoxypyrimidin-2-yl)-2,6-dimethylpiperazine-1-carboxamide], the inhibitory constant (Ki) was in the range of 10 to 100 nM.

With `COc1ccc(N2CCN(C(=O)NCCC3CCN(Cc4ccccc4)CC3)[C@H](C)C2)cc1F` [4-70, (2R)-N-[2-(1-benzylpiperidin-4-yl)ethyl]-4-(3-fluoro-4-methoxyphenyl)-2-methylpiperazine-1-carboxamide], the Ki was in the range of 10 to 100 nM.

On to `O=C(NCCC1CCN(Cc2ccccc2)CC1)N1CCN(c2cc(F)c(F)c(F)c2)CC1` [4-74, N-[2-(1-benzylpiperidin-4-yl)ethyl]-4-(3,4,5-trifluorophenyl)piperazine-1-carboxamide], for which the Ki was in the range of 10 to 100 nM.

As to `C[C@@H]1CN(c2nc(C#N)cc(C#N)n2)CCN1C(=O)NCCC1CCN(Cc2ccccc2)CC1` [4-75, (2R)-N-[2-(1-benzylpiperidin-4-yl)ethyl]-4-(4,6-dicyanopyrimidin-2-yl)-2-methylpiperazine-1-carboxamide], the Ki was 10 to 100 nM.

In the case of `C[C@@H]1CN(c2ncc(C#N)cc2F)C[C@H](C)N1C(=O)NCCC1CCN(Cc2ccccc2)CC1` [4-78, (2S,6R)-N-[2-(1-benzylpiperidin-4-yl)ethyl]-4-(5-cyano-3-fluoropyridin-2-yl)-2,6-dimethylpiperazine-1-carboxamide], the Ki fell in the range of 10 to 100 nM.

In the case of `C[C@@H]1CN(c2ncc(C(=O)O)cn2)CCN1C(=O)NCCC1CCN(Cc2ccccc2)CC1` [5-2, 2-[(3R)-4-{[2-(1-benzylpiperidin-4-yl)ethyl]carbamoyl}-3-methylpiperazin-1-yl]pyrimidine-5-carboxylic acid], the Ki was 100 to 1000 nM.

For the compound `C[C@@H]1CN(c2ncc(Cl)c(Cl)n2)CCN1C(=O)NCCC1CCN(Cc2ccccc2)CC1` [5-3, (2R)-N-[2-(1-benzylpiperidin-4-yl)ethyl]-4-(4,5-dichloropyrimidin-2-yl)-2-methylpiperazine-1-carboxamide], the inhibition constant Ki was in the range of 100 to 1000 nM.

Regarding `C[C@@H]1CN(c2ncc(C#N)c(NCC(F)(F)F)n2)C[C@H](C)N1C(=O)NCCC1CCN(Cc2ccccc2)CC1` [5-4, (2S,6R)-N-[2-(1-benzylpiperidin-4-yl)ethyl]-4-{5-cyano-4-[(2,2,2-trifluoroethyl)amino]pyrimidin-2-yl}-2,6-dimethylpiperazine-1-carboxamide], the Ki was 10 to 100 nM.

Regarding `C[C@@H]1CN(c2nc(F)c(F)c(F)n2)CCN1C(=O)NCCC1CCN(Cc2ccccc2)CC1` [5-6, (2R)-N-[2-(1-benzylpiperidin-4-yl)ethyl]-2-methyl-4-(trifluoropyrimidin-2-yl)piperazine-1-carboxamide], the Ki was in the range of 10 to 100 nM.

In the case of `C[C@@H]1CN(c2ncc(C#N)c(NCC(F)(F)F)n2)CCN1C(=O)NCCC1CCN(Cc2ccccc2)CC1` [5-7, (2R)-N-[2-(1-benzylpiperidin-4-yl)ethyl]-4-{5-cyano-4-[(2,2,2-trifluoroethyl)amino]pyrimidin-2-yl}-2-methylpiperazine-1-carboxamide], the Ki lay in the range of 10 to 100 nM.

Regarding `C[C@@H]1CN(c2ncc(F)c(Cl)n2)CCN1C(=O)NCCC1CCN(Cc2ccccc2)CC1` [5-9, (2R)-N-[2-(1-benzylpiperidin-4-yl)ethyl]-4-(4-chloro-5-fluoropyrimidin-2-yl)-2-methylpiperazine-1-carboxamide], the Ki is 100 to 1000 nM.

Consider `C[C@@H]1CN(c2ncc(Br)c(Cl)n2)CCN1C(=O)NCCC1CCN(Cc2ccccc2)CC1` [5-10, (2R)-N-[2-(1-benzylpiperidin-4-yl)ethyl]-4-(5-bromo-4-chloropyrimidin-2-yl)-2-methylpiperazine-1-carboxamide], for which the Ki lay within 100 to 1000 nM.

Take `COC(=O)c1cc(Cl)nc(N2CCN(C(=O)NCCC3CCN(Cc4ccccc4)CC3)[C@H](C)C2)n1` [5-11, methyl 2-[(3R)-4-{[2-(1-benzylpiperidin-4-yl)ethyl]carbamoyl}-3-methylpiperazin-1-yl]-6-chloropyrimidine-4-carboxylate]: the Ki was in the range of 100 to 1000 nM.

For the compound `COC(=O)c1cc(C)nc(N2CCN(C(=O)NCCC3CCN(Cc4ccccc4)CC3)[C@H](C)C2)n1` [5-12, methyl 2-[(3R)-4-{[2-(1-benzylpiperidin-4-yl)ethyl]carbamoyl}-3-methylpiperazin-1-yl]-6-methylpyrimidine-4-carboxylate], the Ki fell in the range of 100 to 1000 nM.

Regarding `C[C@@H]1CN(c2ncc(C#N)cn2)CCN1C(=O)NCCC1CCN(Cc2ccccc2)CC1` [5-13, (2R)-N-[2-(1-benzylpiperidin-4-yl)ethyl]-4-(5-cyanopyrimidin-2-yl)-2-methylpiperazine-1-carboxamide], the Ki is 10 to 100 nM.

In the case of `C[C@@H]1CN(c2ncc(C#N)c(N(C)C)n2)CCN1C(=O)NCCC1CCN(Cc2ccccc2)CC1` [5-15, (2R)-N-[2-(1-benzylpiperidin-4-yl)ethyl]-4-[5-cyano-4-(dimethylamino)pyrimidin-2-yl]-2-methylpiperazine-1-carboxamide], the Ki lay within 10 to 100 nM.

In the case of `COc1nc(N2CCN(C(=O)NCCC3CCN(Cc4ccccc4)CC3)[C@H](C)C2)ncc1C#N` [5-16, (2R)-N-[2-(1-benzylpiperidin-4-yl)ethyl]-4-(5-cyano-4-methoxypyrimidin-2-yl)-2-methylpiperazine-1-carboxamide], the Ki fell in the range of 10 to 100 nM.

As for `C[C@@H]1CN(c2ncc(F)cn2)C[C@H](C)N1C(=O)NCCC1CCN(Cc2ccccc2)CC1` [5-19, (2S,6R)-N-[2-(1-benzylpiperidin-4-yl)ethyl]-4-(5-fluoropyrimidin-2-yl)-2,6-dimethylpiperazine-1-carboxamide], the Ki lay in the range of 10 to 100 nM.

In the case of `CNc1nc(N2C[C@@H](C)N(C(=O)NCCC3CCN(Cc4ccccc4)CC3)[C@@H](C)C2)ncc1C#N` [5-21, (2R,6S)-N-[2-(1-benzylpiperidin-4-yl)ethyl]-4-[5-cyano-4-(methylamino)pyrimidin-2-yl]-2,6-dimethylpiperazine-1-carboxamide], the Ki fell in the range of 100 to 1000 nM.

Regarding `N#Cc1cnc(N2CCN(C(=O)NCCC3CCN(Cc4ccccc4)CC3)C[C@H]2CO)nc1` [5-25, (3S)-N-[2-(1-benzylpiperidin-4-yl)ethyl]-4-(5-cyanopyrimidin-2-yl)-3-(hydroxymethyl)piperazine-1-carboxamide], the Ki lay within 100 to 1000 nM.

`N#Cc1cnc(N2CCN(C(=O)NCCC3CCN(Cc4ccccc4)CC3)[C@@H](CO)C2)nc1` [5-26, (2R)-N-[2-(1-benzylpiperidin-4-yl)ethyl]-4-(5-cyanopyrimidin-2-yl)-2-(hydroxymethyl)piperazine-1-carboxamide]: the Ki was in the range of 100 to 1000 nM.
